Legend:
[1] = system: barnyardgrass; assay: Test C preemergence; format: in vivo, Echinochloa crusgalli; conditions: 0 to 100 scale (0 no effect, 100 complete control); for Barnyardgrass plant response rating: preemergence
Procedure, shortened: (§1)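 Visual injury ratings on a 0–100 scale (100 = complete control) were made against untreated controls 10 days after treatment in the greenhouse. Compounds, formulated with surfactant in non-phytotoxic solvent, were sprayed on soil preemergence or onto one- to two-leaf plants 2–10 cm tall postemergence.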

[2] = system: blackgrass; assay: Test C preemergence; format: in vivo, Alopecurus myosuroides; conditions: 0 to 100 scale (0 no effect, 100 complete control); for Blackgrass plant response rating: preemergence
Procedure, shortened: as §1

[3] = system: corn; assay: Test C preemergence; format: in vivo, Zea mays; conditions: 0 to 100 scale (0 no effect, 100 complete control); for Corn plant response rating: preemergence
Source text: (§2) Seeds of plant species selected from barnyardgrass (Echinochloa crusgalli), blackgrass (Alopecurus myosuroides), corn (Zea mays), foxtail, giant (giant foxtail, Setaria faberi), green foxtail (Setaria viridis), goosegrass (Eleusine indica), kochia (Bassia scoparia), oat, wild (wild oat, Avena fatua), pigweed, palmer (palmer amaranth, palmer pigweed, Amaranthus palmeri), Pigweed, Redroot (redroot pigweed, Amaranthus retroflexus), ragweed (common ragweed, Ambrosia artemisiifolia), ryegrass, Italian ([…] ryegrass, Lolium multiflorum), soybean (Glycine max), and wheat (Triticum aestivum) were planted into a blend of loam soil and sand and treated preemergence with a directed soil spray using test chemicals formulated in a non-phytotoxic solvent mixture which included a surfactant. At the same time, plants selected from these crops and weed species and also galium (catchweed bedstraw, Galium aparine) and horseweed (Erigeron canadensis) were planted in pots containing the same blend of loam soil and sand and treated with postemergence applications of test chemicals formulated in the same manner. Plants ranged in height from 2 to 10 cm and were in the one- to two-leaf stage for the postemergence treatment. Treated plants and untreated controls were maintained in a greenhouse for 10 days, after which time all treated plants were compared to untreated controls and visually evaluated for injury. Plant response ratings, summarized in Table C, are based on a 0 to 100 scale where 0 is no effect and 100 is complete control. A dash (-) response means no test result.

[4] = system: green foxtail; assay: Test C preemergence; format: in vivo, Setaria viridis; conditions: 0 to 100 scale (0 no effect, 100 complete control); for Foxtail, Green plant response rating: preemergence
Procedure, shortened: as §1

[5] = system: kochia; assay: Test C preemergence; format: in vivo, Bassia scoparia; conditions: 0 to 100 scale (0 no effect, 100 complete control); for Kochia plant response rating: preemergence
Procedure, shortened: as §1

[6] = system: oat, wild; assay: Test C preemergence; format: in vivo, Avena fatua; conditions: 500 g ai/ha, preemergence; 0 to 100 scale (0 no effect, 100 complete control)
Source text: as §2

[7] = system: pigweed, palmer; assay: Test C preemergence; format: in vivo, Amaranthus palmeri; conditions: 0 to 100 scale (0 no effect, 100 complete control); for Pigweed, Palmer plant response rating: preemergence
Procedure, shortened: as §1

[8] = system: ragweed; assay: Test C preemergence; format: in vivo, Ambrosia artemisiifolia; conditions: 0 to 100 scale (0 no effect, 100 complete control); for Ragweed plant response rating: preemergence
Procedure, shortened: as §1

[9] = system: ryegrass, Italian; assay: Test C preemergence; format: in vivo, Lolium multiflorum; conditions: 0 to 100 scale (0 no effect, 100 complete control); for Ryegrass, Italian plant response rating: preemergence
Procedure, shortened: as §1

[10] = system: soybean; assay: Test C preemergence; format: in vivo, Glycine max; conditions: 0 to 100 scale (0 no effect, 100 complete control); for Soybean plant response rating: preemergence
Source text: as §2

[11] = system: wheat; assay: Test C preemergence; format: in vivo, Triticum aestivum; conditions: 0 to 100 scale (0 no effect, 100 complete control); for Wheat plant response rating: preemergence
Source text: as §2

[12] = system: barnyardgrass; assay: Test C postemergence; format: in vivo, Echinochloa crusgalli; conditions: 10 days
Procedure, shortened: as §1

[13] = system: blackgrass; assay: Test C postemergence; format: in vivo, Alopecurus myosuroides; conditions: 10 days
Procedure, shortened: as §1

[14] = system: corn; assay: Test C postemergence; format: in vivo, Zea mays; conditions: 10 days
Source text: as §2

[15] = system: green foxtail; assay: Test C postemergence; format: in vivo, Setaria viridis; conditions: 10 days
Procedure, shortened: as §1

[16] = system: kochia; assay: Test C postemergence; format: in vivo, Bassia scoparia; conditions: 10 days
Procedure, shortened: as §1

[17] = system: oat, wild; assay: Test C postemergence; format: in vivo, Avena fatua; conditions: 10 days
Source text: as §2

[18] = system: pigweed, palmer; assay: Test C postemergence; format: in vivo, Amaranthus palmeri; conditions: 10 days
Procedure, shortened: as §1

[19] = system: ragweed; assay: Test C postemergence; format: in vivo, Ambrosia artemisiifolia; conditions: 10 days
Procedure, shortened: as §1

[20] = system: ryegrass, Italian; assay: Test C postemergence; format: in vivo, Lolium multiflorum; conditions: 10 days
Procedure, shortened: as §1

[21] = system: soybean; assay: Test C postemergence; format: in vivo, Glycine max; conditions: 10 days
Source text: as §2

[22] = system: wheat; assay: Test C postemergence; format: in vivo, Triticum aestivum; conditions: 10 days
Source text: as §2

[23] = system: horseweed; assay: Test C postemergence; format: in vivo, Erigeron canadensis; conditions: 10 days
Procedure, shortened: as §1

[24] = system: galium; assay: Test C postemergence; format: in vivo, Galium aparine; conditions: 10 days
Procedure, shortened: as §1

[25] = Postemergence, 125 g ai/ha, 0 to 100 scale (0 no effect, 100 complete control)
[26] = Preemergence, 500 g ai/ha, visual rating after 10 days
[27] = 125 g ai/ha, postemergence, 0 to 100 scale, 0 no effect, 100 complete control
[28] = Postemergence, 500 g ai/ha, visual 0 to 100 scale (0 no effect, 100 complete control)

Compound: CCOC[C@H]1CN(C(=O)c2cc(-n3cnc(C(C)C)n3)cc3c2OCO3)c2cccc(Cl)c2O1 [40 0]
- Barnyardgrass plant response rating ([1]; 500 g ai/ha): 100
- Blackgrass plant response rating ([2]; 500 g ai/ha): 50
- Corn plant response rating ([3]; 500 g ai/ha): 0
- Foxtail, Green plant response rating ([4]; 500 g ai/ha): 100
- Kochia plant response rating ([5]; 500 g ai/ha): 90
- Oat, Wild plant response rating [6]: 30
- Pigweed, Palmer plant response rating ([7]; 500 g ai/ha): 100
- Ragweed plant response rating ([8]; 500 g ai/ha): 70
- Ryegrass, Italian plant response rating ([9]; 500 g ai/ha): 90
- Soybean plant response rating ([10]; 500 g ai/ha): 100
- Wheat plant response rating ([11]; 500 g ai/ha): 40
- Plant response rating, Barnyardgrass [12, 25]: 30
- Plant response rating, Blackgrass [13, 25]: 40
- Plant response rating, Corn [14, 25]: 30
- Plant response rating, Foxtail, Green [15, 25]: 20
- Plant response rating, Kochia [16, 25]: 70
- Plant response rating, Oat, Wild [17, 25]: 0
- Plant response rating, Pigweed, Palmer [18, 25]: 100
- Plant response rating, Ragweed [19, 25]: 60
- Plant response rating, Ryegrass, Italian [20, 25]: 0
- Plant response rating, Soybean [21, 25]: 20
- Plant response rating, Wheat [22, 25]: 20
- Plant response rating, Horseweed [23, 25]: 40

Compound: CCc1ncn(-c2cc(OC)cc(C(=O)N3C[C@H](C)Oc4c(Cl)cccc43)c2)n1 [Compound 164]
- Barnyardgrass plant response rating ([1]; 125 g ai/ha): 50
- Plant response rating, Barnyardgrass [1, 26]: 100
- Plant response rating, Blackgrass [2, 26]: 80
- Blackgrass plant response rating ([2]; Test C, 125 g ai/ha): 50
- Plant response rating, Corn [3, 26]: 30
- Corn plant response rating ([3]; Test C, 125 g ai/ha): 30
- Plant response rating, Foxtail, Green [4, 26]: 100
- Foxtail, Green plant response rating ([4]; Test C, 125 g ai/ha): 100
- Plant response rating, Kochia [5, 26]: 100
- Kochia plant response rating ([5]; Test C, 125 g ai/ha): 40
- Plant response rating, Pigweed, Palmer [7, 26]: 100
- Pigweed, Palmer plant response rating ([7]; Test C, 125 g ai/ha): 100
- Plant response rating, Ragweed [8, 26]: 60
- Ragweed plant response rating ([8]; Test C, 125 g ai/ha): 70
- Plant response rating, Ryegrass, Italian [9, 26]: 100
- Ryegrass, Italian plant response rating ([9]; Test C, 125 g ai/ha): 90
- Plant response rating, Soybean [10, 26]: 100
- Soybean plant response rating ([10]; Test C, 125 g ai/ha): 90
- Plant response rating, Wheat [11, 26]: 60
- Wheat plant response rating ([11]; Test C, 125 g ai/ha): 20
- Plant response rating, Barnyardgrass [12, 27]: 40
- Plant response rating, Barnyardgrass [12, 28]: 50
- Plant response rating, Blackgrass [13, 27]: 70
- Plant response rating, Blackgrass [13, 28]: 90
- Plant response rating, Corn [14, 27]: 30
- Plant response rating, Corn [14, 28]: 90
- Plant response rating, Foxtail, Green [15, 27]: 50
- Plant response rating, Foxtail, Green [15, 28]: 80
- Plant response rating, Kochia [16, 27]: 80
- Plant response rating, Kochia [16, 28]: 90
- Plant response rating, Oat, Wild [17, 27]: 30
- Plant response rating, Oat, Wild [17, 28]: 50
- Plant response rating, Pigweed, Palmer [18, 27]: 90
- Plant response rating, Pigweed, Palmer [18, 28]: 100
- Plant response rating, Ragweed [19, 27]: 50
- Plant response rating, Ragweed [19, 28]: 90
- Plant response rating, Ryegrass, Italian [20, 27]: 50
- Plant response rating, Ryegrass, Italian [20, 28]: 90
- Plant response rating, Soybean [21, 27]: 100
- Plant response rating, Soybean [21, 28]: 100
- Plant response rating, Wheat [22, 27]: 30
- Plant response rating, Wheat [22, 28]: 30
- Plant response rating, Galium [24, 27]: 100
- Plant response rating, Galium [24, 28]: 100
- Plant response rating, Horseweed [23, 27]: 20
- Plant response rating, Horseweed [23, 28]: 50

— patent publication US20260262643A1, “HERBICIDAL BENZOXAZINES” (FMC CORPORATION, priority 2022, published 2026)
